Results published in ChEMBL document CHEMBL3259619, “Antibacterial activity of a series of N2,N4-disubstituted quinazoline-2,4-diamines” (J Med Chem, 2014).
Values after ≈ are worked out from the molar mass of the structure shown. Active and inactive are the calls of the source.

Columns and labels:
Staphylococcus aureus [1] = experiment: Antimicrobial activity against methicillin-resistant Staphylococcus aureus CBD-635 assessed as zone of inhibition at 5 mg/ml after 24 hrs by disk diffusion assay; type: functional; conditions: for zone of inhibition at 5000 µg/mL: CBD-635, 24 h, read-out: IZ
Staphylococcus aureus [2] = experiment: Antimicrobial activity against methicillin-resistant Staphylococcus aureus CBD-635 assessed as complete inhibition of bacterial growth at 5 times MIC after overnight incubation in presence of tetrahydrofolic acid; type: functional, organism-based
Staphylococcus aureus [3] = experiment: Antimicrobial activity against methicillin-resistant Staphylococcus aureus CBD-635 assessed as complete inhibition of bacterial growth after overnight incubation; type: functional

Row | SMILES | inhibition zone (IZ) (Staphylococcus aureus [1]) | inhibition (Staphylococcus aureus [2]) | zone of inhibition at 5000 µg/mL (Staphylococcus aureus [1]) | MIC (Staphylococcus aureus [3])
1 | CCNc1nc(NC(C)C)c2ccccc2n1 | inactive | inactive |  | 
2 | CC(C)Nc1nc(NCCO)nc2ccccc12 | inactive | inactive |  | 
3 | COc1cccc2nc(NC(C)C)nc(NCc3ccco3)c12 |  | inactive | 9 mm | > 80 µM
4 | CC(C)Nc1nc(NCC(F)(F)F)c2ccccc2n1 | inactive | inactive |  | 
5 | CC(C)Nc1nc(Nc2ccccc2)c2ccccc2n1 |  | inactive | 10 mm | 36 µM (≈ 10 µg/mL)
6 | c1coc(CNc2nc(NC3CCC3)nc3ccccc23)c1 | inactive | inactive |  | 
7 | Cc1cccc2nc(NC(C)C)nc(NCc3ccco3)c12 | inactive | inactive |  | 
8 | Cc1ccc(Nc2nc(NCc3ccco3)c3ccccc3n2)cc1 |  | inactive | 9 mm | 30 µM (≈ 9.91 µg/mL)
9 | CC(C)Nc1nc(NC2CC2)nc2ccccc12 | inactive | inactive |  | 
10 | CC(C)Nc1nc(N(C)C)c2ccccc2n1 | inactive | inactive |  | 
11 | CCNc1nc(NCc2ccco2)c2ccccc2n1 | inactive | inactive |  | 
12 | COc1ccc2c(NCc3ccco3)nc(NC(C)C)nc2c1 | inactive | inactive |  | 
13 | CC(C)Nc1nc(NC(C)(C)C)c2ccccc2n1 | inactive | inactive |  | 
14 | COc1cccc2c(NCc3ccco3)nc(NC(C)C)nc12 | inactive | inactive |  | 
15 | CC(C)Nc1nc(NC2CC2)c2ccccc2n1 | inactive | inactive |  | 
16 | CCNc1nc(NC(C)C)nc2ccccc12 | inactive | inactive |  | 
17 | CNc1nc(NC2CCCC2)nc2ccccc12 | inactive | inactive |  | 

Row | SMILES | inhibition zone (IZ) (Staphylococcus aureus [1]) | inhibition (Staphylococcus aureus [2]) | zone of inhibition at 5000 µg/mL (Staphylococcus aureus [1]) | MIC (Staphylococcus aureus [3])
18 | FC(F)(F)CNc1nc(NCc2ccco2)c2ccccc2n1 | inactive | inactive |  | 
19 | CNc1nc(NC(C)C)c2ccccc2n1 | inactive | inactive |  | 
20 | CNc1nc(NC)c2ccccc2n1 | inactive | inactive |  | 
21 | CNc1nc(NC2CC2)nc2ccccc12 | inactive | inactive |  | 
22 | CC(C)Nc1nc(NC(C)C)c2ccccc2n1 | inactive | inactive |  | 
23 | COc1ccc(CNc2nc(NCc3ccc(Cl)cc3)c3ccc(Cl)cc3n2)cc1 |  | inactive |  | 51 µM (≈ 22.4 µg/mL)
24 | Cc1ccc2c(NCc3ccco3)nc(NC(C)C)nc2c1 | inactive | inactive |  | 
25 | Clc1ccc(CNc2nc(NCc3ccc(Cl)cc3)c3ccc(Cl)cc3n2)cc1 |  | inactive |  | 68 µM (≈ 30.2 µg/mL)
26 | COc1ccc(CNc2nc(NCc3ccccc3)c3ccc(Cl)cc3n2)cc1 |  | inactive |  | 22 µM (≈ 8.91 µg/mL)
27 | CCOC(=O)CNc1nc(NC(C)C)nc2ccccc12 | inactive | inactive |  | 
28 | Cc1ccc2nc(NC(C)C)nc(NCc3ccco3)c2c1 | inactive | inactive |  | 
29 | CNc1nc(NCc2ccco2)c2ccccc2n1 | inactive | inactive |  | 
30 | CNc1nc(NC(C)C)nc2ccccc12 | inactive | inactive |  | 
31 | c1coc(CNc2nc(NC3CC3)nc3ccccc23)c1 | inactive | inactive |  | 
32 | CC(C)Nc1nc(NCC2CCCO2)c2ccccc2n1 (stereo unspecified) | inactive | inactive |  | 
33 | OCCNc1nc(NCc2ccco2)c2ccccc2n1 | inactive | inactive |  | 
34 | CNc1nc(NCCO)nc2ccccc12 | inactive | inactive |  | 
